This is an account of results in BindingDB's records for doi:10.1016/S0960-894X(97)10080-4 (1997).

A short description of the test: Tested for functional activity against neuronal nicotinic acetylcholine receptor(nAChR) expressed in K177 cells using isotopic rubidium efflux assay.

With `c1cnc2cc([C@@H]3CCCN3)oc2c1` [(S)-2-Pyrrolidin-2-yl-furo[3,2-b]pyridine], the EC50 was greater than 1 mM.

By EC50 is commonly meant the concentration at which the effect is half-maximal. Low readings indicate higher potency in that assay, high ones lower potency in that assay.
